Test results taken from US5849782A, “Methods of inhibiting neurodegenerative diseases” (The General Hospital Corporation, priority 1996, dated 1998).

Legend:
mice = experiment: Rectal temperature in mice; details: 7-NI 50 mg/kg
Description: To exclude the possibility that hypothermia may contribute to the protection, we maintained body temperature at 37.5° C. in controls, mice treated with four doses of MPTP at 20 mg/kg, and mice additionally treated with 7-NI (n=6 per group).

rats = experiment: Striatal lesions produced by systemic 3-NP; type: in vivo, rat
Description: Systemic 3-NP treatment. 3-NP was diluted in water and adjusted to pH 7.4 with NaOH and administered at a dose of 10 mg/kg i.p. every 12 h. With this dosing regimen the animals become acutely ill after 4 to 5 days and show large striatal lesions. (Beal et al. (1993) J. Neurosci. 13:4181-4192.) At the same time points, 25 mg/kg of 7-NI dissolved in peanut oil at a concentration of 10 mg/ml (treated group) or vehicle alone (peanut oil, control group) was administered s.c.. Since there was variability in the times at which animals became ill, they were clinically examined 3 hours after the injections and 1 animal of each group was sacrificed when an animal was acutely ill, regardless of whether it was a vehicle treated control or a 7-NI treated animal. In an initial experiment 12 animals per group were studied. Following sacrifice, striatal lesion size was assessed by TTC staining.
In a second experiment, 5 animals per group were studied with the same treatment paradigm. Since the first experiment had shown by pairwise sacrifice that the vehicle treated animals always became ill before the 7-NI treated animals, a third experimental group of 5 animals was included to determine whether 7-NI treated animals become ill following administration of 3-NP. […] In this experiment animals were deeply anesthetized and transcardially perfused with ice cold saline, followed by phosphate buffered 4% paraformaldehyde (Beal et al. (1991) J. Neurosci. 11:1649-1659). Brains were sectioned at 50 μm intervals on a freezing microtome. Combined staining for Nissl substance and NADPH-diaphorase was performed. Adjacent sections were stained by immunohistochemistry with antibodies against ^8 -hydroxy-2deoxyguanosine.

Male Sprague-Dawley rats = experiment: Striatal lesions produced by intrastriatal NMDA, AMPA, KA (TTC staining); type: in vivo, rat
Description: Stereotaxic Lesion Technique. Male Sprague-Dawley rats (Charles River, Cambridge, Mass.) weighing 300-325 g were anesthetized with pentobarbital (50 mg/kg i.p.) and positioned in a David Kopf stereotaxic instrument with the incisor bar set at 3.3 mm below the intermural line. Malonate, NMDA, KA, and AMPA were dissolved in 0.1M phosphate-buffered saline (pH, 7.4). Intrastriatal injections were made with a 10 μl Hamilton syringe fitted with a 30 gauge blunt-tipped needle into the left striatum at the coordinates 0.5 mm anterior bregma, 2.6 mm lateral to the midline and 5 mm ventral to the dura. Injection volumes were 1 μl (3 μmol malonate). All injections were made over 1 min and the needle was left in place for an additional 1 min before being slowly withdrawn. 7-NI was dissolved and sonicated in peanut oil at a concentration of 10 mg/ml. 50 mg/kg of 7-NI were administered i.p. 30 min before striatal injections of malonate, NMDA, KA and AMPA. […] Nine to ten animals were used per group in each experiment.
Quantification of Lesion Volume. One week after the striatal injections, animals were sacrificed by decapitation and the brains were rapidly removed, placed in cold saline for 10 min, and sectioned coronally into slices at 2 mm intervals. Slices were stained in 2% 2,3,5-triphenyltetrazolium chloride monohydrate (TTC) (Sigma, St. Louis, Mo.) solution at room temperature in the dark for 30 min followed by fixation in phosphate-buffered 4% paraformaldehyde. (Bederson et al. (1986) Stroke 17:1304-1308.) The lesioned area (noted by pale staining) was measured on the posterior surface of each section using an Apple Macintosh.COPYRGT. based image analysis system (Sony color video camera, Software: ColorSnap.COPYRGT. (Computer Friends Inc., Portland, Oreg.) and IPLab Spectrum.COPYRGT. (Signal Analytics, Vienna, Va.)). The lesions were evaluated by an experienced histologist, who verified the reliability of the TTC measurements in animals injected with malonate on adjacent sections stained with either TTC or Nissl stain (Schulz et al. (1995) J. Neurochem 64:in press).

[1] = 2 doses of 50 mg/kg 7-NI 4 h and 0.5 h before striatal injection

## O=[N+]([O-])c1cccc2cn[nH]c12 [7-NI, 7-nitroindazole]
mice; 0.5 h after injection, p=0.03
  decrease in rectal temperature vs peanut oil controls: 0.6 °C
mice; 0.5 h after injection, peanut oil controls 36.8±0.2
  rectal temperature: 36.2±0.1 °C
mice; 1 h after injection
  change in rectal temperature vs peanut oil controls: no significant decrease
rats; 3-NP 10 mg/kg every 12 h with 7-NI, n=5
  protection of striatum from 3-NP lesions (Nissl/NADPH-diaphorase histology): completed protected
rats; 3-NP 10 mg/kg i.p. every 12 h, 7-NI 50 mg/kg every 12 h as printed
  striatal lesions produced by 3-NP (TTC staining): completely prevented
rats; 12 h
  median accumulative 3-NP dose at first symptoms: 130 mg/kg
Male Sprague-Dawley rats; [1]
  protection against lesions produced by 5 nmol KA: no protection
  protection against lesions produced by 30 nmol AMPA: no protection
  protection against lesions produced by 200 nmol NMDA: 35%
Male Sprague-Dawley rats; single dose 7-NI 50 mg/kg i.p. before striatal injection, vehicle 25.0±2.4
  striatal lesion volume, 200 nmol NMDA: 21.3±3.4 mm^3
Male Sprague-Dawley rats; single dose 7-NI 50 mg/kg i.p. before striatal injection, vehicle 33.6±4.6
  striatal lesion volume, 30 nmol AMPA: 30.4±5.2 mm^3
Male Sprague-Dawley rats; single dose 7-NI 50 mg/kg i.p. before striatal injection, vehicle 39.5±2.9
  striatal lesion volume, 5 nmol KA: 36.3±4.4 mm^3
